The values below come from ChEMBL document CHEMBL3871295, “N-Propargylpiperidines with naphthalene-2-carboxamide or naphthalene-2-sulfonamide moieties: Potential multifunctional anti-Alzheimer's agents” (Bioorg Med Chem, 2017).

For data set [1], the target named is T1, Amine oxidase [flavin-containing] B (Homo sapiens, UniProt P27338).
T1 sequence (P27338 whole entry): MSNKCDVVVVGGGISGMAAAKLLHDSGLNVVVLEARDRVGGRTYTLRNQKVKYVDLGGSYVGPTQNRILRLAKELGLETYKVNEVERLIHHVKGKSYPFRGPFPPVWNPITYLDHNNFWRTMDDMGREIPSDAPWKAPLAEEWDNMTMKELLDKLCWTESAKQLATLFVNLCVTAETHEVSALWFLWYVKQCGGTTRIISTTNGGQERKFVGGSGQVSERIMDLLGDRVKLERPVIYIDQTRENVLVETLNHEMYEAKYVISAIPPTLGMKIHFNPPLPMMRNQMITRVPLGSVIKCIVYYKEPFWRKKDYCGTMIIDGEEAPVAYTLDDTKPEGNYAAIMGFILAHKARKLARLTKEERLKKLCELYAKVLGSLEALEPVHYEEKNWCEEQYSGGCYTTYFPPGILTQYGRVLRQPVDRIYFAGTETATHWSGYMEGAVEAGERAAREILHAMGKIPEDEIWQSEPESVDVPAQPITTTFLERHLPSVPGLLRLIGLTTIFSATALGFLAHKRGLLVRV
In words: biochemical. The class given is cell-based.

Another data set is filed under the species Homo sapiens. In words: Selectivity ratio of IC50 for human recombinant microsomal MAO-A expressed in baculovirus-infected insect cells to IC50 for human recombinant microsomal MAO-B expressed in baculovirus-infected insect cells.
For data set [2], the target named is Amyloid-beta precursor protein (Homo sapiens) (UniProt P05067). As to the kind of experiment: Inhibition of HFIP-pretreated recombinant human amyloid beta (1 to 42) self-induced aggregation at 10 uM measured after 20 hrs for every 300 secs by thioflavin-T based fluorometric assay relative to control.
In a further data set the target is Cholinesterase (Homo sapiens, UniProt P06276).
The target of the next data set is T2, Acetylcholinesterase (Mus musculus, UniProt P21836).
T2 sequence (P21836 whole entry): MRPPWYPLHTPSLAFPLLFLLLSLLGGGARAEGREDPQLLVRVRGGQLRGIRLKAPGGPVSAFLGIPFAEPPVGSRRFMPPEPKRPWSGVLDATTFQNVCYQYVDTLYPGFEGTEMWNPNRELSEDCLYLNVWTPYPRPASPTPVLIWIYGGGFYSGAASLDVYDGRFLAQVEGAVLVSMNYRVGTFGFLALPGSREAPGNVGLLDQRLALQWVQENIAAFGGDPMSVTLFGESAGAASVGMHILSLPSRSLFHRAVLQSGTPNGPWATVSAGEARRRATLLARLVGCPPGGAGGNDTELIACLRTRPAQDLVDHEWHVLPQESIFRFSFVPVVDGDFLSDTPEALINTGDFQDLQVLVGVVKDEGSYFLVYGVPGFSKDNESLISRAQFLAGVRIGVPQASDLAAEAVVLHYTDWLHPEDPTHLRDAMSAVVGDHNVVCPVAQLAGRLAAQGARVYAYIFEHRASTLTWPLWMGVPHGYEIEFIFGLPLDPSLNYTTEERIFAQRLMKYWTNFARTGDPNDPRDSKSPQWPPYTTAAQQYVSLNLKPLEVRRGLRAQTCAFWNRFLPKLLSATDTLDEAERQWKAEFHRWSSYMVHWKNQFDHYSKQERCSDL

In data set [3] the target is T3, Amine oxidase [flavin-containing] A (Homo sapiens, UniProt P21397).
T3 sequence (P21397 whole entry): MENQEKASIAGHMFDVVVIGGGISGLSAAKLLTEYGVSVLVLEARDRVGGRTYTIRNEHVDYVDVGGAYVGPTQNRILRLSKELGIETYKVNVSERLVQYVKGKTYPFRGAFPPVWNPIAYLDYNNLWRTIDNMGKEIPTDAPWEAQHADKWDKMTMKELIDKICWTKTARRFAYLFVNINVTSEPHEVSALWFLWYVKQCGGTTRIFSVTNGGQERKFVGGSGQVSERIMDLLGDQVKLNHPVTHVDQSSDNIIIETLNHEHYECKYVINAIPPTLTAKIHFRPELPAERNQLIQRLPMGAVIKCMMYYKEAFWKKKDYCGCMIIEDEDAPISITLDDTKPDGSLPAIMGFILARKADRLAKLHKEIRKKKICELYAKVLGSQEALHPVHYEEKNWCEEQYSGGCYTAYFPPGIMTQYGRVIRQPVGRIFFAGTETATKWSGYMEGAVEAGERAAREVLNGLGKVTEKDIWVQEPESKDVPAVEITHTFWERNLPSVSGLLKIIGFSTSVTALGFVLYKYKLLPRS
As to the kind of experiment: biochemical.

Data set [4] can be described thus: Cytotoxicity against human SH-SY5Y cells measured after 48 hrs by MTS assay. The class given is toxicity, cell-based. The note with it: read-out: LD50. (Tetrazolium assays rely on reduction of a dye to a coloured formazan, in cell work by metabolically active cells.)
Data set [5] is described as follows: Cytotoxicity against human SH-SY5Y cells at […] measured after 48 hrs by MTS assay. The class given is toxicity, cell-based.
For data set [6], the system named is SH-SY5Y. As to the kind of experiment: Neuroprotective activity against amyloid beta (1 to 42) induced cell death in human SH-SY5Y cells assessed as cell viability at […] measured after 48 hrs by MTS assay. It counts as functional, cell-based.
The subject of a further data set is BChE. In words: in vitro. The note with it: human, SH-SY5Y cells.
In data set [7] the target is T1, Amine oxidase [flavin-containing] B. As to the kind of experiment: Irreversible inhibition of human recombinant microsomal MAO-B expressed in baculovirus-infected insect cells at 10 times IC50 preincubated for 15 mins followed by dilution to […] and subsequent addition of p-tyramine hydrochloride substrate measured for 30 mins by amplex red assay relative to control. The following applies: 0.5 h.

The target is the same in data set [8]. As to the kind of experiment: Time-dependent inhibition of human recombinant microsomal MAO-B expressed in baculovirus-infected insect cells preincubated for 5 to 30 mins by IC50 shift assay.
The nature of data set [9]: Cytotoxicity against human SH-SY5Y cells at 5 uM measured after 48 hrs by MTS assay. It counts as toxicity, cell-based.
Another data set relates to MAO-B. In words: Selectivity index, ratio of LD50 for cytotoxicity against human SH-SY5Y cells to IC50 for human recombinant microsomal MAO-B expressed in baculovirus-infected insect cells. The note with it: read-out: Ratio LD50/IC50. It counts as toxicity.
Data set [10] has as its system SH-SY5Y. In words: Neuroprotective activity against amyloid beta (1 to 42) induced cell death in human SH-SY5Y cells assessed as cell viability at 5 uM measured after 48 hrs by MTS assay. The class given is functional, cell-based.
The conditions of data set [11]: PAMPA, pH 7.4. On the technique in general: The PAMPA barrier holds no transporters, so it reflects passive diffusion.

SMILES strings stand for the structures. pIC50: −log10 of the molar value. Activity calls are given as the source filed them. No cut-off for these calls is given here.

Chain of Cholinesterase (P06276 whole entry): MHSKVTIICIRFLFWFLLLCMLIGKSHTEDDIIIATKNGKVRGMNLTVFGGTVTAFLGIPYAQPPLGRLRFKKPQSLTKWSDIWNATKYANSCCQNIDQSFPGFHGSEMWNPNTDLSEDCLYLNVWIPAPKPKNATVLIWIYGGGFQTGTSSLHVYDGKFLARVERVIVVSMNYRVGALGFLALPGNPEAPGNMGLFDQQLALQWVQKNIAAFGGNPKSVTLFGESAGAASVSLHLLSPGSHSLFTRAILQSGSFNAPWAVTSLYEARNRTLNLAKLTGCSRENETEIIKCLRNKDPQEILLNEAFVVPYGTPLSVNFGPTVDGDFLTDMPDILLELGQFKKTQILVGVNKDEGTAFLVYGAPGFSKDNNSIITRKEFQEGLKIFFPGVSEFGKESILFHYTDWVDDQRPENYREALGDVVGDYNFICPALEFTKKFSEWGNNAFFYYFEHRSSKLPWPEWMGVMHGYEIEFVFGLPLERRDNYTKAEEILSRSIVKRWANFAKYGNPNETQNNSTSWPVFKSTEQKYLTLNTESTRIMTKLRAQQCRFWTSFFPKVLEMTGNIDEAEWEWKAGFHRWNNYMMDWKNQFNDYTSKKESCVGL
Chain of Amyloid-beta precursor protein (Homo sapiens) (P05067 whole entry): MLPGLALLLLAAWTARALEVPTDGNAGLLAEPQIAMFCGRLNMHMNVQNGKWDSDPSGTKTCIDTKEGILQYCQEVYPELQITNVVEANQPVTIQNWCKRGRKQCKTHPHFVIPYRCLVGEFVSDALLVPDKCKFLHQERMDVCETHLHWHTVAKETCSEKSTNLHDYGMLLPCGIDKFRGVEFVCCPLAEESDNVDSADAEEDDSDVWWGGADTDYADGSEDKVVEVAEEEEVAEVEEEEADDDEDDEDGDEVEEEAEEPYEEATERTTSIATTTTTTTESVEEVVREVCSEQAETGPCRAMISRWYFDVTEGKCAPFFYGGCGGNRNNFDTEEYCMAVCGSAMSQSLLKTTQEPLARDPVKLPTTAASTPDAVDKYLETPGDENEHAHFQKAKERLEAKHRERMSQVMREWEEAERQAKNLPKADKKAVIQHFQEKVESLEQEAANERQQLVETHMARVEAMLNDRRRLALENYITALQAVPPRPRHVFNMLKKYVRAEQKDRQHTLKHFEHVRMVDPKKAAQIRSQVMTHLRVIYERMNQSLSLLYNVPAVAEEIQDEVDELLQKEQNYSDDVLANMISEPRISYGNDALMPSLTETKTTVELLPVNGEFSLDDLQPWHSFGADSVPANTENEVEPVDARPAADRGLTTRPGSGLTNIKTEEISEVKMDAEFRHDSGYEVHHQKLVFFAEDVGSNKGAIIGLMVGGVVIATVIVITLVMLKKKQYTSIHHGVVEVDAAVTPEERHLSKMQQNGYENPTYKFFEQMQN

Take `C#CCN1CCC(CN(CCCOC)C(=O)c2ccc3ccccc3c2)CC1`: the pIC50 in data set [1] is less than 4.00; against Cholinesterase it was 5.34; at Acetylcholinesterase it was less than 4.00; in data set [3] it was less than 4.00. Moreover, the Ratio IC50 in the data set filed under Homo sapiens worked out at 1. Also, the inhibition in data set [2] is less than 10%.

Consider `C#CCN1CCC(CN(CCOC)C(=O)c2ccc3ccccc3c2)CC1`, for which the pIC50 is less than 4.00 in data set [1], 5.39 against Cholinesterase, less than 4.00 against Acetylcholinesterase and less than 4.00 in data set [3]. In addition, the Ratio IC50 in the data set listed under Homo sapiens amounted to 1. Moreover, the inhibition in data set [2] amounted to 23.4%.

In the case of `C#CCN1CCC(CN(CCCOC)S(=O)(=O)c2ccc3ccccc3c2)CC1`, the negative logarithm of the IC50 (pIC50) is less than 4.00 in [1], 6.55 against Cholinesterase, less than 4.00 on Acetylcholinesterase and less than 4.00 in data set [3]. Besides, in the data set filed under Homo sapiens, the Ratio IC50 amounted to 1. Moreover, the inhibition in [2] is less than 10%.

Take `C#CCN1CCCC(CN(CCCOC)S(=O)(=O)c2ccc3ccccc3c2)C1` (centres undefined): the pIC50 in [1] is less than 4.00; at Cholinesterase it was 6.90; at Acetylcholinesterase, less than 4.00; in data set [3] it was less than 4.00. Further, the Ratio IC50 in the data set listed under Homo sapiens was determined as 1. Also, the inhibition in [2] is less than 10%. In data set [4], the CC50 at 48 h was found to be 48.1 µM. Further, the Activity entry in data set [5] is reported as “Non-Toxic”. The result in the data set on SH-SY5Y [6] was Active. In addition, in the data set with BChE, the selectivity ratio was determined as 375.

As to `C#CCN1CCCC(CNC(=O)c2ccc3ccccc3c2)C1` (centres undefined), the pIC50 in [1] was 4.23; on Cholinesterase it was 4.63; against Acetylcholinesterase, less than 4.00; in data set [3] it was less than 4.00. Also, the Ratio IC50 in the data set listed under Homo sapiens is more than 1.69. In addition, the inhibition in data set [2] is less than 10%.

On to `C#CCN1CCCC(CN(CCOC)C(=O)c2ccc3ccccc3c2)C1` (centres undefined), for which the negative-log IC50 (pIC50) was less than 4.00 in data set [1], 5.48 against Cholinesterase, less than 4.00 at Acetylcholinesterase and less than 4.00 in data set [3]. Moreover, the Ratio IC50 in the data set listed under Homo sapiens was determined as 1. The inhibition in [2] is less than 10%.

Turning to `C#CCN1CCC(CNS(=O)(=O)c2ccc3ccccc3c2)CC1`, the pIC50 is 4.27 in data set [1], 5.59 against Cholinesterase, less than 4.00 against Acetylcholinesterase and less than 4.00 in [3]. Further, in the data set filed under Homo sapiens, the Ratio IC50 was more than 1.86. Moreover, the “inhibition (INH)” value in [7] was more than 70%. Also, the TDI result in data set [8] was “Active”. Moreover, the inhibition in [2] is less than 10%. The Activity result in data set [9] is recorded as “Non-Toxic”. Besides, the CC50 at 48 h in [4] came out at 242 µM. Moreover, the selectivity ratio in the data set on MAO-B was found to be 4; in the data set on BChE, 90. Also, the result with SH-SY5Y [10] was Active.

`CC(=O)[C@H]1CC[C@H]2[C@@H]3CCC4=CC(=O)CC[C@]4(C)[C@H]3CC[C@]12C` [PROGESTERONE]: the logPeff in data set [11] was -4.

Regarding `C#CCN1CCC(CN(CCOC)S(=O)(=O)c2ccc3ccccc3c2)CC1`, the pIC50 in data set [1] was less than 4.00; at Cholinesterase, 6.42; against Acetylcholinesterase it was less than 4.00; in [3] it was less than 4.00. In the data set listed under Homo sapiens, the Ratio IC50 was 1. In [2], the inhibition is less than 10%.

As to `C#CCN1CCCC(CN(CCOC)S(=O)(=O)c2ccc3ccccc3c2)C1` (centres undefined), the pIC50 in data set [1] was less than 4.00; against Cholinesterase, 6.86; on Acetylcholinesterase, less than 4.00; in [3] it was less than 4.00. Further, the Ratio IC50 in the data set filed under Homo sapiens amounted to 1. Also, in data set [2], the inhibition is less than 10%.

Regarding `C#CCN1CCCC(CN(CCCOC)C(=O)c2ccc3ccccc3c2)C1` (centres undefined), the pIC50 in data set [1] is less than 4.00; against Cholinesterase, 5.06; against Acetylcholinesterase, less than 4.00; in data set [3] it was less than 4.00. The Ratio IC50 in the data set listed under Homo sapiens was determined as 1. In data set [2], the inhibition is less than 10%.

For the compound `C#CCN1CCC(CNC(=O)c2ccc3ccccc3c2)CC1`, the pIC50 was 4.14 in data set [1], 4.26 at Cholinesterase, less than 4.00 at Acetylcholinesterase and less than 4.00 in data set [3]. Besides, in the data set listed under Homo sapiens, the Ratio IC50 was more than 1.38. Moreover, the inhibition in data set [2] is less than 10%.

Turning to `C#CCN1CCCC(CNS(=O)(=O)c2ccc3ccccc3c2)C1` (centres undefined), the pIC50 is less than 4.00 in data set [1], 5.91 on Cholinesterase, less than 4.00 on Acetylcholinesterase and less than 4.00 in data set [3]. The Ratio IC50 in the data set filed under Homo sapiens was found to be 1. In addition, the inhibition in data set [2] is less than 10%.

One may read the pIC50 as −log10 of the IC50, conventionally taken in molar units. Read a high pIC50 as a small IC50. Broadly, the inhibition is the percentage by which the read-out fell short of the control.
